≈ marks a conversion by molar mass, not a printed value.
system: barnyard grass; assay: Experiment 2: herbicidal effects against barnyard grass (pot test, granules); type: in vivo, Echinochloa crus-galli; details: 150 g/10a., 2.5 leaf-stage, 25 days

| Structure (SMILES) | herbicidal activity (barnyard grass) |
| --- | --- |
| CC1CCC(C)CN(C(=O)SCCCCl)C1 (stereo not drawn) [Compound 6, S-(3-chloropropyl)-3,6-dimethyl-hexahydro-1H-azepine-1-carbothioate] | 5 (more than 90%) |
| CC1CCC(C)CN(C(=O)SCCCCCl)C1 (stereo not drawn) [Compound 7, S-(4-chlorobutyl)-3,6-dimethyl-hexahydro-1H-azepine-1-carbothioate] | 5 (more than 90%) |

same assay, conditions: 300 g/10a., 2.5 leaf-stage, 25 days

| Structure (SMILES) | herbicidal activity (barnyard grass) |
| --- | --- |
| CC1CCC(C)CN(C(=O)SCCCCl)C1 (stereo not drawn) [Compound 6, S-(3-chloropropyl)-3,6-dimethyl-hexahydro-1H-azepine-1-carbothioate] | 5 (more than 90%) |
| CC1CCC(C)CN(C(=O)SCCCCCl)C1 (stereo not drawn) [Compound 7, S-(4-chlorobutyl)-3,6-dimethyl-hexahydro-1H-azepine-1-carbothioate] | 5 (more than 90%) |

same assay, conditions: 600 g/10a., 2.5 leaf-stage, 25 days

| Structure (SMILES) | herbicidal activity (barnyard grass) |
| --- | --- |
| CC1CCC(C)CN(C(=O)SCCCCl)C1 (stereo not drawn) [Compound 6, S-(3-chloropropyl)-3,6-dimethyl-hexahydro-1H-azepine-1-carbothioate] | 5 (more than 90%) |
| CC1CCC(C)CN(C(=O)SCCCCCl)C1 (stereo not drawn) [Compound 7, S-(4-chlorobutyl)-3,6-dimethyl-hexahydro-1H-azepine-1-carbothioate] | 5 (more than 90%) |

system: not listed separately; assay: Experiment 4: subacute toxicity to fish; type: in vivo, 2-year-old carps; details: carp, water; 0.2 ppm; 3 weeks; read-out: Survival rate after 3 weeks
Description: (§1) With respect to the compounds according to the present invention and the comparative compounds listed in Table 4, there were conducted tests on subacute toxicity to 2-year-old carps having an average weight of 20 g.
(§2) Ten 2-year-old carps were released in each of 25-liter water tanks equipped with an air-blowing apparatus and acclimatized to the surroundings while feeding for 10 days. Water in each of the water tanks was continuously replaced with fresh water so that the residence time of water in the water tanks is 6 hours. Each test compound was added to a predetermined quantity of supply water to prepare a 0.2 ppm aqueous solution of each compound, and each of the aqueous solutions was continuously added to the water in the tank. After three weeks, the hematocrit values of all the survival carps were determined. The hematocrit value used herein is intended to mean a volume percentage of erythrocyte contained in the blood.

| Structure (SMILES) | survival at 504 h [%] |
| --- | --- |
| CC1CCC(C)CN(C(=O)SCCCCl)C1 (stereo not drawn) [Compound 6, S-(3-chloropropyl)-3,6-dimethyl-hexahydro-1H-azepine-1-carbothioate] | 100 |
| CC1CCC(C)CN(C(=O)SCCCCCl)C1 (stereo not drawn) [Compound 7, S-(4-chlorobutyl)-3,6-dimethyl-hexahydro-1H-azepine-1-carbothioate] | 100 |

system: carps; assay: Experiment 4: subacute toxicity to fish; type: in vivo, 2-year-old carps; details: 0.2 ppm; 3 weeks
Description: as §1, §2

| Structure (SMILES) | Average Hematocrit Value of survival fish [%] |
| --- | --- |
| CC1CCC(C)CN(C(=O)SCCCCl)C1 (stereo not drawn) [Compound 6, S-(3-chloropropyl)-3,6-dimethyl-hexahydro-1H-azepine-1-carbothioate] | 34 |
| CC1CCC(C)CN(C(=O)SCCCCCl)C1 (stereo not drawn) [Compound 7, S-(4-chlorobutyl)-3,6-dimethyl-hexahydro-1H-azepine-1-carbothioate] | 34 |

system: broad-leaf weeds; assay: Experiment 2: herbicidal effects against broad-leaf weeds (pot test, granules); type: in vivo; details: 150 g/10a., 25 days

| Structure (SMILES) | Herbicidal activity broad-leaf weeds |
| --- | --- |
| CC1CCC(C)CN(C(=O)SCCCCl)C1 (stereo not drawn) [Compound 6, S-(3-chloropropyl)-3,6-dimethyl-hexahydro-1H-azepine-1-carbothioate] | 4 (70 to 89%) |
| CC1CCC(C)CN(C(=O)SCCCCCl)C1 (stereo not drawn) [Compound 7, S-(4-chlorobutyl)-3,6-dimethyl-hexahydro-1H-azepine-1-carbothioate] | 4 (70 to 89%) |

same assay, conditions: 300 g/10a., 25 days

| Structure (SMILES) | Herbicidal activity broad-leaf weeds |
| --- | --- |
| CC1CCC(C)CN(C(=O)SCCCCl)C1 (stereo not drawn) [Compound 6, S-(3-chloropropyl)-3,6-dimethyl-hexahydro-1H-azepine-1-carbothioate] | 5 (more than 90%) |
| CC1CCC(C)CN(C(=O)SCCCCCl)C1 (stereo not drawn) [Compound 7, S-(4-chlorobutyl)-3,6-dimethyl-hexahydro-1H-azepine-1-carbothioate] | 5 (more than 90%) |

same assay, conditions: 600 g/10a., 25 days

| Structure (SMILES) | Herbicidal activity broad-leaf weeds |
| --- | --- |
| CC1CCC(C)CN(C(=O)SCCCCl)C1 (stereo not drawn) [Compound 6, S-(3-chloropropyl)-3,6-dimethyl-hexahydro-1H-azepine-1-carbothioate] | 5 (more than 90%) |
| CC1CCC(C)CN(C(=O)SCCCCCl)C1 (stereo not drawn) [Compound 7, S-(4-chlorobutyl)-3,6-dimethyl-hexahydro-1H-azepine-1-carbothioate] | 5 (more than 90%) |

system: Hotarui (Scirpus juncoides); assay: Experiment 2: herbicidal effects against Hotarui (pot test, granules); type: in vivo; details: 150 g/10a., 25 days

| Structure (SMILES) | Herbicidal activity Hotarui (Scirpus juncoides) |
| --- | --- |
| CC1CCC(C)CN(C(=O)SCCCCl)C1 (stereo not drawn) [Compound 6, S-(3-chloropropyl)-3,6-dimethyl-hexahydro-1H-azepine-1-carbothioate] | 4 (70 to 89%) |
| CC1CCC(C)CN(C(=O)SCCCCCl)C1 (stereo not drawn) [Compound 7, S-(4-chlorobutyl)-3,6-dimethyl-hexahydro-1H-azepine-1-carbothioate] | 3 (50 to 69%) |

same assay, conditions: 300 g/10a., 25 days

| Structure (SMILES) | Herbicidal activity Hotarui (Scirpus juncoides) |
| --- | --- |
| CC1CCC(C)CN(C(=O)SCCCCl)C1 (stereo not drawn) [Compound 6, S-(3-chloropropyl)-3,6-dimethyl-hexahydro-1H-azepine-1-carbothioate] | 5 (more than 90%) |
| CC1CCC(C)CN(C(=O)SCCCCCl)C1 (stereo not drawn) [Compound 7, S-(4-chlorobutyl)-3,6-dimethyl-hexahydro-1H-azepine-1-carbothioate] | 5 (more than 90%) |

same assay, conditions: 600 g/10a., 25 days

| Structure (SMILES) | Herbicidal activity Hotarui (Scirpus juncoides) |
| --- | --- |
| CC1CCC(C)CN(C(=O)SCCCCl)C1 (stereo not drawn) [Compound 6, S-(3-chloropropyl)-3,6-dimethyl-hexahydro-1H-azepine-1-carbothioate] | 5 (more than 90%) |
| CC1CCC(C)CN(C(=O)SCCCCCl)C1 (stereo not drawn) [Compound 7, S-(4-chlorobutyl)-3,6-dimethyl-hexahydro-1H-azepine-1-carbothioate] | 5 (more than 90%) |

system: not listed separately; assay: Experiment 3: acute toxicity to fish; type: in vivo, Black-carp fry; details: carp, water; 48 hrs; read-out: Median lethal concentration TLm (48hrs)
Description: With respect to the compounds according to the present invention and the comparative compounds (Compound 10, Compound 12 and Compound 13), there were conducted tests on acute toxicity to carps.
In 25-liter water tanks made of glass was charged 20 liters of water. 12 Black-carp fry were released to each of the water tanks and bred while feeding for 7 days. Then, the whole quantity of water in each of the tanks was replaced with fresh water, and feeding to the carps was stopped. After three days, a prescribed amount of 1 weight % solution of a test compound in acetone was added to water in the water tank.
The number of survival fish in each tank was counted after 24 hours, 48 hours and 96 hours, successively.
The TLm (median tolerance limit=lethal concentration 50%) was determined by the Doudorff's method (Sewage & Ind. Wastes 23 (1951) 1380-1397).

| Structure (SMILES) | LC50 at 48 h [µg/mL] |
| --- | --- |
| CC1CCC(C)CN(C(=O)SCCCCl)C1 (stereo not drawn) [Compound 6, S-(3-chloropropyl)-3,6-dimethyl-hexahydro-1H-azepine-1-carbothioate] | 4.4 (≈ 16.7 µM) |
| CC1CCC(C)CN(C(=O)SCCCCCl)C1 (stereo not drawn) [Compound 7, S-(4-chlorobutyl)-3,6-dimethyl-hexahydro-1H-azepine-1-carbothioate] | 2.6 (≈ 9.36 µM) |

same assay, conditions: carp, water; 96 hrs; read-out: Median lethal concentration TLm (96hrs)

| Structure (SMILES) | LC50 at 96 h [µg/mL] |
| --- | --- |
| CC1CCC(C)CN(C(=O)SCCCCl)C1 (stereo not drawn) [Compound 6, S-(3-chloropropyl)-3,6-dimethyl-hexahydro-1H-azepine-1-carbothioate] | 3.7 (≈ 14 µM) |
| CC1CCC(C)CN(C(=O)SCCCCCl)C1 (stereo not drawn) [Compound 7, S-(4-chlorobutyl)-3,6-dimethyl-hexahydro-1H-azepine-1-carbothioate] | 2.6 (≈ 9.36 µM) |

system: Mizugayatsuri (Cyperus serotinus); assay: Experiment 2: herbicidal effects against Mizugayatsuri (pot test, granules); type: in vivo; details: 150 g/10a., 25 days

| Structure (SMILES) | Herbicidal activity Mizugayatsuri (Cyperus serotinus) |
| --- | --- |
| CC1CCC(C)CN(C(=O)SCCCCl)C1 (stereo not drawn) [Compound 6, S-(3-chloropropyl)-3,6-dimethyl-hexahydro-1H-azepine-1-carbothioate] | 3 (50 to 69%) |
| CC1CCC(C)CN(C(=O)SCCCCCl)C1 (stereo not drawn) [Compound 7, S-(4-chlorobutyl)-3,6-dimethyl-hexahydro-1H-azepine-1-carbothioate] | 3 (50 to 69%) |

same assay, conditions: 300 g/10a., 25 days

| Structure (SMILES) | Herbicidal activity Mizugayatsuri (Cyperus serotinus) |
| --- | --- |
| CC1CCC(C)CN(C(=O)SCCCCl)C1 (stereo not drawn) [Compound 6, S-(3-chloropropyl)-3,6-dimethyl-hexahydro-1H-azepine-1-carbothioate] | 4 (70 to 89%) |
| CC1CCC(C)CN(C(=O)SCCCCCl)C1 (stereo not drawn) [Compound 7, S-(4-chlorobutyl)-3,6-dimethyl-hexahydro-1H-azepine-1-carbothioate] | 4 (70 to 89%) |

same assay, conditions: 600 g/10a., 25 days

| Structure (SMILES) | Herbicidal activity Mizugayatsuri (Cyperus serotinus) |
| --- | --- |
| CC1CCC(C)CN(C(=O)SCCCCl)C1 (stereo not drawn) [Compound 6, S-(3-chloropropyl)-3,6-dimethyl-hexahydro-1H-azepine-1-carbothioate] | 5 (more than 90%) |
| CC1CCC(C)CN(C(=O)SCCCCCl)C1 (stereo not drawn) [Compound 7, S-(4-chlorobutyl)-3,6-dimethyl-hexahydro-1H-azepine-1-carbothioate] | 5 (more than 90%) |

system: barnyard grass (Echinochloa crus-galli); assay: Experiment 1: herbicidal effects against barnyard grass (pot test, emulsifiable concentrate); type: in vivo; details: 1.5 leaf-stage of barnyard grass; 150 g/10a.; 25 days

| Structure (SMILES) | herbicidal activity (barnyard grass) |
| --- | --- |
| CC1CCC(C)CN(C(=O)SCCCCl)C1 (stereo not drawn) [Compound 6, S-(3-chloropropyl)-3,6-dimethyl-hexahydro-1H-azepine-1-carbothioate] | 5 (more than 90%) |
| CC1CCC(C)CN(C(=O)SCCCCCl)C1 (stereo not drawn) [Compound 7, S-(4-chlorobutyl)-3,6-dimethyl-hexahydro-1H-azepine-1-carbothioate] | 5 (more than 90%) |

same assay, conditions: 1.5 leaf-stage of barnyard grass; 300 g/10a.; 25 days

| Structure (SMILES) | herbicidal activity (barnyard grass) |
| --- | --- |
| CC1CCC(C)CN(C(=O)SCCCCl)C1 (stereo not drawn) [Compound 6, S-(3-chloropropyl)-3,6-dimethyl-hexahydro-1H-azepine-1-carbothioate] | 5 (more than 90%) |
| CC1CCC(C)CN(C(=O)SCCCCCl)C1 (stereo not drawn) [Compound 7, S-(4-chlorobutyl)-3,6-dimethyl-hexahydro-1H-azepine-1-carbothioate] | 5 (more than 90%) |

same assay, conditions: 1.5 leaf-stage of barnyard grass; 600 g/10a.; 25 days

| Structure (SMILES) | herbicidal activity (barnyard grass) |
| --- | --- |
| CC1CCC(C)CN(C(=O)SCCCCl)C1 (stereo not drawn) [Compound 6, S-(3-chloropropyl)-3,6-dimethyl-hexahydro-1H-azepine-1-carbothioate] | 5 (more than 90%) |
| CC1CCC(C)CN(C(=O)SCCCCCl)C1 (stereo not drawn) [Compound 7, S-(4-chlorobutyl)-3,6-dimethyl-hexahydro-1H-azepine-1-carbothioate] | 5 (more than 90%) |

same assay, conditions: 3 leaf-stage of barnyard grass; 150 g/10a.; 25 days

| Structure (SMILES) | herbicidal activity (barnyard grass) |
| --- | --- |
| CC1CCC(C)CN(C(=O)SCCCCl)C1 (stereo not drawn) [Compound 6, S-(3-chloropropyl)-3,6-dimethyl-hexahydro-1H-azepine-1-carbothioate] | 5 (more than 90%) |
| CC1CCC(C)CN(C(=O)SCCCCCl)C1 (stereo not drawn) [Compound 7, S-(4-chlorobutyl)-3,6-dimethyl-hexahydro-1H-azepine-1-carbothioate] | 5 (more than 90%) |

same assay, conditions: 3 leaf-stage of barnyard grass; 300 g/10a.; 25 days

| Structure (SMILES) | herbicidal activity (barnyard grass) |
| --- | --- |
| CC1CCC(C)CN(C(=O)SCCCCl)C1 (stereo not drawn) [Compound 6, S-(3-chloropropyl)-3,6-dimethyl-hexahydro-1H-azepine-1-carbothioate] | 5 (more than 90%) |
| CC1CCC(C)CN(C(=O)SCCCCCl)C1 (stereo not drawn) [Compound 7, S-(4-chlorobutyl)-3,6-dimethyl-hexahydro-1H-azepine-1-carbothioate] | 5 (more than 90%) |

same assay, conditions: 3 leaf-stage of barnyard grass; 600 g/10a.; 25 days

| Structure (SMILES) | herbicidal activity (barnyard grass) |
| --- | --- |
| CC1CCC(C)CN(C(=O)SCCCCl)C1 (stereo not drawn) [Compound 6, S-(3-chloropropyl)-3,6-dimethyl-hexahydro-1H-azepine-1-carbothioate] | 5 (more than 90%) |
| CC1CCC(C)CN(C(=O)SCCCCCl)C1 (stereo not drawn) [Compound 7, S-(4-chlorobutyl)-3,6-dimethyl-hexahydro-1H-azepine-1-carbothioate] | 5 (more than 90%) |
